Assay results published in patent publication US9988632B2, “Composition including pint gene expression inhibitor or pint activity inhibitor and use thereof” (Samsung Electronics Co., Ltd., priority 2015, dated 2018).

Experiments:
Type in all cases: cell-based, human
[1] = test system: PINT lincRNA; assay: PINT lincRNA levels (qPCR) in young cells in the presence of DNA damage inducers; conditions: 10 μM, 24 hours, level in absence of DNA damage inducers taken as 1
Procedure: PINT lincRNA levels were measured according to DNA damage in cells. The cells were young cells HDF(M4) and HDF(neonatal) derived from humans, explained in section 1.
As a negative control, the cells were treated with dimethyl sulfoxide (DMSO) (Sigma-Aldrich). Thereafter, mRNAs were isolated from all the cells, and then quantitative polymerase chain reaction (qPCR) was performed using nucleotide sequences of SEQ ID NOS: 22 and 24 as PINT primers to measure PINT levels.

[2] = test system: PINT; assay: PINT level (qPCR) after siRNA transfection; conditions: HDF(neonatal) cells, 25 nM siRNA, 72 hours, vs scramble siRNA
Description: In detail, the young cells were human dermal fibroblast (HDF) (hereinafter, referred to as ‘HDF cell’ or ‘HDF (neonatal)’) obtained from neonatal foreskin, human dermal fibroblast (HDF) M4 cell (hereinafter, referred to as ‘HDF M4 cell’ or ‘HDF (M4)’) obtained from the foreskin of a child, and human mammary epithelial cell (HMEC) (hereinafter, referred to as ‘HMEC cell’ or ‘HMEC’) obtained from ATCC® PCS-600-010™. The young cells for the purposes of the experiments were cells of the above cell lines that were passaged 10 times or less and have a doubling time of about 1 day. The senescent cells were cells of the same cell lines that were passaged 33 to 50 times and have a doubling time of about 14 days or longer. The young cells and senescent cells were inoculated in 6-well plates at a density of 50,000 cells/well and 20,000 cells/well, respectively. The inoculated cells were cultured in 2 ml of a DMEM medium containing 10% (v/v) FBS, and 1× penicillin/streptomycin and high concentrations of glucose, glutamine, and pyruvate under conditions of 37° C. and 5% CO2 for 3 days.
mRNAs were isolated from all the cells thus prepared, and then quantitative polymerase chain reaction (qPCR) was performed using nucleotide sequences of SEQ ID NOS: 22 and 23 as PINT primers to measure PINT levels.
To inhibit PINT gene expression and/or PINT activity, the following 5 siRNAs including sequences complementary to PINT gene of SEQ ID NO: 1 were designed and synthesized (Cosmogenetech, Korea).
The siRNAs includes nucleotide sequences of SEQ ID NO: 12 and SEQ ID NO: 13; SEQ ID NO: 14 and SEQ ID NO: 15; SEQ ID NO: 16 and SEQ ID NO: 17; SEQ ID NO: 18 and SEQ ID NO: 19; and SEQ ID NO: 20 and SEQ ID NO: 21, respectively and hereinbelow, these siRNAs are called siPINT-1, siPINT-2, siPINT-3, siPINT-4, and siPINT-5, respectively.
It was examined whether the siRNAs decrease PINT levels in senescent cells. First, HDF(neonatal) young cells being passaged 9 times and having a doubling time of 1 day and HDF(neonatal) senescent cells being passaged 49 times and having a doubling time of 14 days, which were prepared in section 1, were transfected with 25 nM siRNA. The cells were cultured for 72 hours under the same conditions as in section 1, except that each siRNA was mixed with 1 μL of a Dharmacon transfection reagent (Dharmacon), and added to media. A negative control group was prepared in the same manner, except that scramble siRNA was added instead of the siRNAs. After culturing, PINT levels in the cells were measured in the same manner as in section 1. As a result, when siPINT-1, siPINT-2, siPINT-3, siPINT-4, and siPINT-5 were used, the PINT levels were decreased by 36, 0, 67, 50, and 0%, respectively, as compared to the control group.

[3] = test system: HDF(neonatal) senescent cells; assay: Immunoblotting of phosphorylated H2AX (gamma-H2AX) in siRNA-introduced cells; conditions: HDF(neonatal) senescent cells vs young cells, 25 nM siRNA, 72 hours
Procedure: (§1) HDF(neonatal) young cells being passaged 9 times and having a doubling time of 1 day and HDF(neonatal) senescent cells being passaged 49 times and having a doubling time of 14 days, which were prepared in section 1, were cultured for 72 hours under the same conditions as in section 1, except that each 25 nM of siPINT-3 and siPINT-4 was mixed with 1 μL of a Dharmacon transfection reagent (Dharmacon) and added to media. A negative control group was prepared in the same manner, except that scramble siRNA (hereinafter, also called ‘siCTRL’) was added instead of the siRNAs.
After culturing, proteins were isolated from siRNA-introduced cells, and then the isolated proteins were subjected to immunoblotting using anti-GAPDH and anti-phosphorylated-H2AX. H2AX becomes phosphorylated on serine 139 as a reaction on DNA Double-strand breaks (DSB), and is also called gamma-H2AX. Gamma-H2AX is an indicator of DNA damage.

[4] = test system: HDF(neonatal) senescent cells; assay: DNA comet assay in siRNA-introduced cells; conditions: 25 nM siRNA, 72 hours; for tail moment: control senescent cells 2.86, young cells 0.52
Procedure: as §1
Further, DNAs were isolated from the same cells, followed by DNA comet assay. This method is performed by detecting DNA strand break in cells, based on gel electrophoresis. […] After staining a slide with SYBR Green, a length of a tail of DNA fragment was measured under a fluorescence microscope to examine DNA damage.

[5] = test system: HDF(neonatal) young and senescent cells; assay: Selective death of senescent cells by inhibition of PINT expression (cell number after culturing); conditions: siRNA transfection, cultured 14 days
Procedure: HDF(neonatal) young cells being passaged 9 times and having a doubling time of 1 day and HDF(neonatal) senescent cells being passaged 49 times and having a doubling time of 14 days, which were prepared in section 1, were transfected with each of siPINT-1, siPINT-2, siPINT-3, siPINT-4, and siPINT-5 in the same manner as in section 3.2, and further cultured in wells of 6-well plates for 14 days under the same conditions as in section 1. A negative control group was prepared in the same manner, except that scramble siRNA (hereinafter, also called ‘siCTR’) was added instead of the siRNAs.
In FIG. 5, siCTR represents control siRNA, and siPINT represents siPINT-3 among the five used siPINTs. […] However, there was little change in the number of young cells by inhibition of PINT lincRNA expression.

C[C@@]1(CO)[C@H](O)CC[C@@]2(C)[C@H]1CC[C@H]1C[C@@H]3C[C@@]12CC[C@]3(O)CO [aphidicolin]
relative PINT level ([1]; HDF(M4) young cells): 1.95 | relative PINT level ([1]; HDF(neonatal) young cells): 2.72

siPINT-1: siRNA complementary to PINT gene, nucleotide sequences of SEQ ID NO: 12 and SEQ ID NO: 13 (chain 1 AAGAAAUACGCAGAACUGAUUCCUG; chain 2 CAGGAAUCAGUUCUGCGUAUUUCUU; listed as RNA, chemistry not given here)
PINT levels decreased as compared to the control group [2]: 36%

siPINT-2: siRNA complementary to PINT gene, nucleotide sequences of SEQ ID NO: 14 and SEQ ID NO: 15 (chain 1 UGGGAUAAUUUGCCAUCUGGAGUUU; chain 2 AAACUCCAGAUGGCAAAUUAUCCCA; listed as RNA, chemistry not given here)
PINT levels decreased as compared to the control group [2]: 0%

siPINT-3: siRNA complementary to PINT gene, nucleotide sequences of SEQ ID NO: 16 and SEQ ID NO: 17 (chain 1 AUGUAUCAAAUGCCUGGUUCUAUUU; chain 2 AAAUAGAACCAGGCAUUUGAUACAU; listed as RNA, chemistry not given here)
gamma-H2AX levels (indicator of DNA damage) [3]: specifically increased | DNA damage (comet tails, photograph) compared to senescent cells without siPINT introduction [4]: remarkably increased DNA damage | tail moment [4]: 3.68 | PINT levels decreased as compared to the control group [2]: 67% | number of senescent cells compared to the negative control group ([5]; HDF(neonatal) senescent cells): remarkably decreased | change in the number of young cells ([5]; HDF(neonatal) young cells): little change

siPINT-4: siRNA complementary to PINT gene, nucleotide sequences of SEQ ID NO: 18 and SEQ ID NO: 19 (chain 1 AAGUAGGAGCCACGAAAUGUCAUUU; chain 2 AAAUGACAUUUCGUGGCUCCUACUU; listed as RNA, chemistry not given here)
gamma-H2AX levels (indicator of DNA damage) [3]: specifically increased | tail moment [4]: 5.58 | PINT levels decreased as compared to the control group [2]: 50%

siPINT-5: siRNA complementary to PINT gene, nucleotide sequences of SEQ ID NO: 20 and SEQ ID NO: 21 (chain 1 AGCCAGGAAGAGGGACUGGAACCAU; chain 2 AUGGUUCCAGUCCCUCUUCCUGGCU; listed as RNA, chemistry not given here)
PINT levels decreased as compared to the control group [2]: 0%
